# Experimental data published in ChEMBL document CHEMBL6092191, “Advancing Cancer Immunotherapy through Engineering New PD-L1 Degraders: A Comprehensive Study from Small Molecules to PD-L1-Specific Peptide-Drug Conjugates” (J Med Chem, 2024).
# Activity calls are given as the source filed them. The rule behind the calls is not given here.
# Legend:
# [1] = Drug uptake in human PC-9 cells at 10 uM by fluorescence microscopy; type: ADME, cell-based; details: pc-9, 10 µM
# [2] = biological target: COP9 signalosome complex subunit 5 (Homo sapiens) (UniProt Q92905); assay: Induction of PD-L1 degradation in human NCI-H460 cells at 10 uM incubated for 24 hrs by Western blot analysis; type: cell-based
# [3] = test system: Lewis lung carcinoma cell line; assay: Anticancer activity against Lewis lung carcinoma cells xenografted in C57BL/6 mouse model assessed as tumor growth inhibition at 10 mg/kg, ip administered daily for 10 days; type: functional, organism-based; details: time 10.0 day
# [4] = test system: Lewis lung carcinoma cell line; assay: Anticancer activity against Lewis lung carcinoma cells xenografted in C57BL/6 mouse model at 10 mg/kg, ip administered daily for 10 days relative to control; type: functional; details: 240 h, time 10 day, read-out: TGI
# [5] = test system: Lewis lung carcinoma cell line; assay: Antitumor T-cell immune response in Lewis lung carcinoma cells xenografted in C57BL/6 mouse model assessed as decrease in CD3+ CD4+ population in CD45+ T cells in tumor at 10 mg/kg, ip administered daily for 10 days by flow cytometry; type: functional, organism-based; details: time 10.0 day
# [6] = test system: Lewis lung carcinoma cell line; assay: Antitumor T-cell immune response in Lewis lung carcinoma cells xenografted in C57BL/6 mouse model assessed as increase in CD3+ CD8+ infiltration in CD45+ T cells in tumor at 10 mg/kg, ip administered daily for 10 days by flow cytometry; type: functional, organism-based; details: time 10.0 day
# [7] = test system: Lewis lung carcinoma cell line; assay: Antitumor T-cell immune response in Lewis lung carcinoma cells xenografted in C57BL/6 mouse model assessed as increase in ratio of CD8+ to CD4+ T cells in tumor at 10 mg/kg, ip administered daily for 10 days by flow cytometry; type: functional, organism-based; details: time 10.0 day
# [8] = test system: Lewis lung carcinoma cell line; assay: Antitumor T-cell immune response in Lewis lung carcinoma cells xenografted in C57BL/6 mouse model assessed as increase in IFN-gamma level in tumor at 10 mg/kg, ip administered daily for 10 days by ELISA; type: functional, organism-based; details: time 10.0 day
# [9] = test system: Lewis lung carcinoma cell line; assay: Antitumor T-cell immune response in Lewis lung carcinoma cells xenografted in C57BL/6 mouse model assessed as increase in TNF-alpha level in tumor at 10 mg/kg, ip administered daily for 10 days by ELISA; type: functional, organism-based; details: time 10.0 day
# [10] = test system: Lewis lung carcinoma cell line; assay: Antitumor T-cell immune response in Lewis lung carcinoma cells xenografted in C57BL/6 mouse model assessed as increase in GrB level in tumor at 10 mg/kg, ip administered daily for 10 days by ELISA; type: functional, organism-based; details: time 10.0 day
# [11] = Toxicity in C57BL/6 mouse model xenografted with […] cells assessed as body weight loss at 10 mg/kg, ip administered daily for 10 days; type: organism-based; details: in vivo, 240 h, time 10 day
# [12] = Toxicity in C57BL/6 mouse model xenografted with […] cells assessed as obvious damage in heart at 10 mg/kg, ip administered daily for 10 days by H and E staining based analysis; type: organism-based; details: in vivo, 240 h, time 10 day
# [13] = Toxicity in C57BL/6 mouse model xenografted with […] cells assessed as obvious damage in liver at 10 mg/kg, ip administered daily for 10 days by H and E staining based analysis; type: organism-based; details: in vivo, 240 h, time 10 day
# [14] = Toxicity in C57BL/6 mouse model xenografted with […] cells assessed as obvious damage in lung at 10 mg/kg, ip administered daily for 10 days by H and E staining based analysis; type: organism-based; details: in vivo, 240 h, time 10 day
# [15] = Toxicity in C57BL/6 mouse model xenografted with […] cells assessed as obvious damage in spleen at 10 mg/kg, ip administered daily for 10 days by H and E staining based analysis; type: organism-based; details: in vivo, 240 h, time 10 day
# [16] = Toxicity in C57BL/6 mouse model xenografted with […] cells assessed as obvious damage in kidney at 10 mg/kg, ip administered daily for 10 days by H and E staining based analysis; type: organism-based; details: in vivo, 240 h, time 10 day
# [17] = Toxicity in C57BL/6 mouse model xenografted with […] cells assessed as change in ALT level at 10 mg/kg, ip administered daily for 10 days; type: organism-based, Blood; details: in vivo, 240 h, time 10 day
# [18] = Toxicity in C57BL/6 mouse model xenografted with […] cells assessed as change in AST level at 10 mg/kg, ip administered daily for 10 days; type: organism-based, Blood; details: in vivo, 240 h, time 10 day
# [19] = Toxicity in C57BL/6 mouse model xenografted with […] cells assessed as change in serum creatinine level at 10 mg/kg, ip administered daily for 10 days; type: organism-based; details: in vivo, 240 h, time 10 day
# [20] = Toxicity in C57BL/6 mouse model xenografted with […] cells assessed as change in BUN level at 10 mg/kg, ip administered daily for 10 days; type: organism-based, Blood; details: in vivo, 240 h, time 10 day
# Mus musculus = assay: Biodistribution in C57BL/6 mouse model bearing […] lung carcinoma cells assessed as increase in fluorescence signal in tumor at 2 mg/kg, iv measured 4 hrs post-injection by IVIS analysis; type: ADME, organism-based; details: in vivo
# [21] = biological target: COP9 signalosome complex subunit 5 (Homo sapiens) (UniProt Q92905); assay: Induction of PD-L1 degradation in human NCI-H460 cells at 10 uM incubated for 2 days by Western blot analysis; type: cell-based; details: time 2.0 day
# HEK-293T = assay: Antiproliferative activity against HEK293T cells at 10 uM incubated for 4 days; type: toxicity, cell-based; details: human, 96 h, time 4 day
# 3T3-L1 = assay: Antiproliferative activity against mouse 3T3-L1 cells at 10 uM incubated for 4 days; type: toxicity, cell-based; details: 3t3-l1, 96 h, time 4 day
# [22] = Antiproliferative activity against human HTori-3 cells at 10 uM incubated for 4 days; type: toxicity, cell-based; details: htori-3, 96 h, time 4 day
# [23] = biological target: COP9 signalosome complex subunit 5 (Homo sapiens) (UniProt Q92905); assay: Induction of PD-L1 degradation in human NCI-H460 cells at 10 uM by Western blot analysis; type: cell-based; details: time <= 36.0 hrs
# [24] = test system: Lewis lung carcinoma cell line; assay: Antitumor activity against Lewis lung carcinoma cells xenografted in C57BL/6 mouse model at 24.5 mg/kg, ip administered daily for 8 days relative to control; type: functional; details: 192 h, time 8 day, read-out: TGI
# [25] = test system: Lewis lung carcinoma cell line; assay: Antitumor T-cell immune response in Lewis lung carcinoma cells xenografted in C57BL/6 mouse model assessed as increase in ratio of CD8+ to CD4+ T cells in tumor at 24.5 mg/kg, ip administered daily for 8 days by flow cytometry; type: functional, organism-based; details: time 8.0 day
# Sequence of COP9 signalosome complex subunit 5 (Homo sapiens) (Q92905 2-334 limits assumed, one chain of several): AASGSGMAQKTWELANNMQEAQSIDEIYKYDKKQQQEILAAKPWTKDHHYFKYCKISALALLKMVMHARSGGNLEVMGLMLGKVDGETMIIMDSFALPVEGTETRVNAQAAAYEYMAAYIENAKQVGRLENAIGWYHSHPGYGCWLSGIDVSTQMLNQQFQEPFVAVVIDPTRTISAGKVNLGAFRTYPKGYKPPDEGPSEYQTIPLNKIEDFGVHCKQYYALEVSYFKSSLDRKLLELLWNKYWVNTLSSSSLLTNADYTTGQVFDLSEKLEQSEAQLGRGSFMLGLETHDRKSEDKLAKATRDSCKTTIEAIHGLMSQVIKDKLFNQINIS
structure (smiles),measurement,setting,value
COc1cc2c(cc1OC)-c1cc3ccc(OC)c(OCCCCCN)c3c[n+]1CC2.[Cl-],Drug uptake,[1],Time-dependent-effect
same,Activity,[2],Active
same,Activity,[3],Active
same,inhibition in vivo at 10 mg/kg,[4],68%
same,Activity,[5],Active
same,Activity,[6],Active
same,Activity,[7],Active
same,Activity,[8],Active
same,Activity,[9],Active
same,Activity,[10],Active
same,Activity,[11],Non-toxic
same,Activity,[12],Non-toxic
same,Activity,[13],Non-toxic
same,Activity,[14],Non-toxic
same,Activity,[15],Non-toxic
same,Activity,[16],Non-toxic
same,Activity,[17],Non-toxic
same,Activity,[18],Non-toxic
same,Activity,[19],Non-toxic
same,Activity,[20],Non-toxic
COc1ccc2cc3[n+](cc2c1OC)CCc1cc2c(cc1-3)OCO2.[Cl-] [BERBERINE CHLORIDE],Drug uptake,[1],Time-dependent-effect
same,Activity,[2],Active
COc1cc2c(cc1OC)-c1cc3ccc(OC)c(OCCCN)c3c[n+]1CC2.[Cl-],Drug uptake,[1],Time-dependent-effect
same,Activity,[2],Active
same,Activity,[3],Active
same,inhibition in vivo at 10 mg/kg,[4],65%
same,Activity,[5],Active
same,Activity,[6],Active
same,Activity,[7],Active
same,Activity,[8],Active
same,Activity,[9],Active
same,Activity,[10],Active
same,Activity,[11],Non-toxic
same,Activity,[12],Non-toxic
same,Activity,[13],Non-toxic
same,Activity,[14],Non-toxic
same,Activity,[15],Non-toxic
same,Activity,[16],Non-toxic
same,Activity,[17],Non-toxic
same,Activity,[18],Non-toxic
same,Activity,[19],Non-toxic
same,Activity,[20],Non-toxic
COc1ccc2cc3[n+](cc2c1OCCOCCOCCN)CCc1cc2c(cc1-3)OCO2.[Cl-],Drug uptake,[1],Time-dependent-effect
same,Activity,[2],Active
COc1ccc2cc3[n+](cc2c1OCCCN)CCc1cc2c(cc1-3)OCO2.[Cl-],Drug uptake,[1],Time-dependent-effect
same,Activity,[2],Active
COc1cc2c(cc1OC)-c1cc3ccc(OC)c(OC)c3c[n+]1CC2.[Cl-] [PALMATINE CHLORIDE],Drug uptake,[1],Time-dependent-effect
same,Activity,[2],Active
same,Activity,[3],Active; Highest Efficacy Of Tumor Growth Suppression Among Pmt Derivatives
same,Activity,[5],Active
same,Activity,[6],Active
same,Activity,[7],Active
same,Activity,[8],Active
same,Activity,[9],Active
same,Activity,[10],Active
same,Activity,[11],Non-toxic
same,Activity,[12],Non-toxic
same,Activity,[13],Non-toxic
same,Activity,[14],Non-toxic
same,Activity,[15],Non-toxic
same,Activity,[16],Non-toxic
same,Activity,[17],Non-toxic
same,Activity,[18],Non-toxic
same,Activity,[19],Non-toxic
same,Activity,[20],Non-toxic
COc1ccc2cc3[n+](cc2c1OCCCCCN)CCc1cc2c(cc1-3)OCO2.[Cl-],Drug uptake,[1],Time-dependent-effect
same,Activity,[2],Active
CCN1/C(=C/C=C/C=C/C2=[N+](CCCCCC(=O)NCCN3C(=O)CC(SC[C@H](N)C(=O)NCCCCCC(=O)N[C@@H](CC(N)=O)C(=O)N[C@@H](Cc4ccc(O)cc4)C(=O)N[C@@H](CO)C(=O)N[C@@H](CCCCN)C(=O)N4CCC[C@H]4C(=O)N[C@H](C(=O)N[C@@H](CC(=O)O)C(=O)N[C@@H](CCCNC(=N)N)C(=O)N[C@@H](CCC(N)=O)C(=O)N[C@@H](Cc4ccc(O)cc4)C(=O)N[C@@H](Cc4cnc[nH]4)C(=O)N[C@@H](Cc4ccccc4)C(=O)O)[C@@H](C)O)C3=O)c3ccc(S(=O)(=O)O)cc3C2(C)C)C(C)(C)c2cc(S(=O)(=O)O)ccc21 (stereo partly drawn),Drug uptake,Mus musculus,Active
COc1cc2c(cc1OC)-c1cc3ccc(OC)c(OCCNC(=O)OCc4ccc(SSC[C@H](N)C(=O)NCCCCCC(=O)N[C@@H](CC(N)=O)C(=O)N[C@@H](Cc5ccc(O)cc5)C(=O)N[C@@H](CO)C(=O)N[C@@H](CCCCN)C(=O)N5CCC[C@H]5C(=O)N[C@H](C(=O)N[C@@H](CC(=O)O)C(=O)N[C@@H](CCCNC(=N)N)C(=O)N[C@@H](CCC(N)=O)C(=O)N[C@@H](Cc5ccc(O)cc5)C(=O)N[C@@H](Cc5cnc[nH]5)C(=O)N[C@@H](Cc5ccccc5)C(=O)O)[C@@H](C)O)cc4)c3c[n+]1CC2.[Cl-],Activity,[21],Active
same,Activity,HEK-293T,Toxic
same,Activity,3T3-L1,Toxic
same,Activity,[22],Toxic
COc1ccc2cc3[n+](cc2c1OCCN)CCc1cc2c(cc1-3)OCO2.[Cl-],Drug uptake,[1],Time-dependent-effect
same,Activity,[2],inactive
COc1cc2c(cc1OC)-c1cc3ccc(OC)c(OCCOCCOCCN)c3c[n+]1CC2.[Cl-],Drug uptake,[1],Time-dependent-effect
same,Activity,[2],Active
COc1cc2c(cc1OC)-c1cc3ccc(OC)c(OCCNC(=O)CCCC[C@@H]4SC[C@@H]5NC(=O)N[C@@H]54)c3c[n+]1CC2,Activity,[23],Active
C[C@@H](O)[C@H](NC(=O)[C@@H]1CCCN1C(=O)[C@H](CCCCN)NC(=O)[C@H](CO)NC(=O)[C@H](Cc1ccc(O)cc1)NC(=O)[C@H](CC(N)=O)NC(=O)CCCCCNC(=O)[C@@H](N)CS)C(=O)N[C@@H](CC(=O)O)C(=O)N[C@@H](CCCNC(=N)N)C(=O)N[C@@H](CCC(N)=O)C(=O)N[C@@H](Cc1ccc(O)cc1)C(=O)N[C@@H](Cc1cnc[nH]1)C(=O)N[C@@H](Cc1ccccc1)C(=O)O,Activity,[21],inactive
same,Activity,HEK-293T,Non-toxic
same,Activity,3T3-L1,Non-toxic
same,Activity,[22],Non-toxic
same,inhibition in vivo at 24.5 mg/kg,[24],37%
same,Activity,[25],Active
